Assay results from patent US20100168129A1, “DRUGS WITH ANTICHOLESTATIC ACTIVITY” (priority 2007, published 2010).
Where two headings read alike, the source gives them in different places.

Experiments:
[1] = test system: Micrococcus luteus ATCC 10240; assay: plate diffusion method, antibacterial activity and MIC; assay type: cell-based
Experimental: To verify antibacterial activity, the plate diffusion method is used as described in the pharmacopeia: • A quantity of the sample is weighed and slowly dissolved in 25 ml of methanol R • A quantity of 0.05 M phosphate buffer at pH 7.0 is added so as to obtain the following concentrations: 50 μg/ml, 20 μg/ml, 10 μg/ml and 5 μg/ml • Plates were prepared with appropriate culture medium (agar thickness approximately 2-5 mm) inoculated with a suspension of Micrococcus luteus ATCC 10240, Staphylococcus aureus ATCC 6538 and Escherichia coli ATCC 8739. • 0.1 ml of the different concentrations of each sample were dispensed into the wells formed in the agar plates • The plates were held for 1-2 hours at ambient temperature to allow diffusion of the sample and then incubated at 35-39° C. for not less than 18 hours. • The diameters of the inhibition halos of the compounds were measured with a gauge and compared with those of the reference substance, the results being expressed as percentages.

cell line DPX2 [2] = assay: viability and morphology of the cells by optical microscopy
Experimental: (§1) The activity of the new rifamycins is expressed as a ratio between luciferase activity in cells treated with the tested substance and that of the cells treated with DMSO. The viability and morphology of the cells are analyzed by optical microscopy.

human receptor PXR [3] = molecular target: T1, human receptor PXR (Homo sapiens, UniProt O75469); assay: activation of the PXR receptor: CYP3A4 luciferase reporter induction in cell line DPX2; details: for Mean RLU: cell line DPX2P29; for Induction above DMSO: ratio of luciferase activity to DMSO-treated cells
T1 sequence (O75469 1-434): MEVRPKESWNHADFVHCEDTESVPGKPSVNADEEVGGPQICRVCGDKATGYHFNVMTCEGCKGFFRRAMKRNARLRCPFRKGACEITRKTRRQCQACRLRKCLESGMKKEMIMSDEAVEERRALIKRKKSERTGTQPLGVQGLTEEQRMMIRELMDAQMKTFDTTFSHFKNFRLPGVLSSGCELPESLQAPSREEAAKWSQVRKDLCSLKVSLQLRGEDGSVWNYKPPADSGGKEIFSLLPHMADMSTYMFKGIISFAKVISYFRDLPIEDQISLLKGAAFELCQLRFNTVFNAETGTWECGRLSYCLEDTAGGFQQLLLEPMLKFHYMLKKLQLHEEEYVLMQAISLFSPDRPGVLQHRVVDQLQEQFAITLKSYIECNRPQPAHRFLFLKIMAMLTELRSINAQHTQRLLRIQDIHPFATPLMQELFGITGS
Experimental: as §1

human receptor PXR [4] = molecular target: T1, human receptor PXR; details: 10 μM
Experimental: as §1

cell line DPX2 [5] = details: human, 10 μM
Experimental: as §1

[6] = Table A, 5 μg/ml, inhibition halo vs reference standard (rifamycin S for SX1, rifampicin for SX4 and SX5)
[7] = Table A, 10 μg/ml, inhibition halo vs reference standard (rifamycin S for SX1, rifampicin for SX4 and SX5)
[8] = Table A, 50 μg/ml, inhibition halo vs reference standard (rifamycin S for SX1, rifampicin for SX4 and SX5)
[9] = Table B, 5 μg/ml, compared with standard rifampicin
[10] = Table B, 10 μg/ml, compared with standard rifampicin
[11] = Table B, 20 μg/ml, compared with standard rifampicin
[12] = Table B, 50 μg/ml, compared with standard rifampicin

| SMILES | percentage antibacterial activity [1, 6] [%] | percentage antibacterial activity [1, 7] [%] | percentage antibacterial activity [1, 8] [%] | Cell appearance**: cell confluence (%) (cell line DPX2 [2]; 5 μM) | Cell appearance**: morphology (cell line DPX2 [2]; 5 μM) | Cell appearance**: cell confluence (%) (cell line DPX2 [2]; 10 μM) | Cell appearance**: cell confluence (%) (cell line DPX2 [2]; 20 μM) | Cell appearance**: cell confluence (%) (cell line DPX2 [2]; 40 μM) | Mean RLU (human receptor PXR [3]; 5 μM) [RLU] | Induction above DMSO (human receptor PXR [3]; 5 μM) | Mean RLU (human receptor PXR [3]; 10 μM) [RLU] | Induction above DMSO (human receptor PXR [3]; 10 μM) | Mean RLU (human receptor PXR [3]; 20 μM) [RLU] | Induction above DMSO (human receptor PXR [3]; 20 μM) | Mean RLU (human receptor PXR [3]; 40 μM) [RLU] | Induction above DMSO (human receptor PXR [3]; 40 μM) | percentage antibacterial activity [1, 9] [%] | percentage antibacterial activity [1, 10] [%] | percentage antibacterial activity [1, 11] [%] | percentage antibacterial activity [1, 12] [%] | also measured |
| --- | --- | --- | --- | --- | --- | --- | --- | --- | --- | --- | --- | --- | --- | --- | --- | --- | --- | --- | --- | --- | --- |
| COC1CCOC2(C)Oc3c(C)c(O)c4c(O)c(c(C=NN5CCN(C)CC5)c(O)c4c3C2=O)NC(=O)C(C)CCCC(C)C(O)C(C)C(O)C(C)C(OC(C)=O)C1C (centres unmarked) [Example 1, 3-(4′-methyl-1′-piperazinyl-iminomethyl)-16,17,18,19,28,29-hexahydrorifamycin SV] | 0 | 0 | 42 | 30 | MCM | 30 | 30 | 30 | 8698 | 39.0 | 12069 | 54.1 | 12918 | 57.9 | 14636 | 65.6 |  |  |  |  | Cell appearance**: morphology (cell line DPX2 [2]; 10 μM): MCM; Cell appearance**: morphology (cell line DPX2 [2]; 20 μM): MCM; Cell appearance**: morphology (cell line DPX2 [2]; 40 μM): MCM |
| COC1CCOC2(C)Oc3c(C)c(O)c4c(O)c(c(C=NN5CCN(C)CC5)c(O)c4c3C2=O)NC(=O)C(C)CCCC(C)C2OC(C)(C)OC(C2C)C(C)C(OC(C)=O)C1C (centres unmarked) [Example 3, 3-(4′-methyl-1′-piperazinyl-iminomethyl)-21,23-O-isopropylidene-16,17,18,19,28,29-hexahydrorifamycin SV] | 0 | 0 | 0 | 30 | MCM | 30 | 20 | 20 | 8052 | 36.1 | 10848 | 48.6 | 7125 | 32.0 | 4243 | 19.0 |  |  |  |  | MIC (Minimum Inhibitory Concentration) ([1]; Table A): >50 µg/mL; Cell appearance**: morphology (cell line DPX2 [2]; 10 μM): MCM; Cell appearance**: morphology (cell line DPX2 [2]; 20 μM): MCM |
| CCN1CCN(N=Cc2c3c(O)c4c(O)c(C)c5c(c4c2O)C(=O)C(C)(OCCC(OC)C(C)C(OC(C)=O)C(C)C(O)C(C)C(O)C(C)CCCC(C)C(=O)N3)O5)CC1 (centres unmarked) [Example 6, 3-(4′-ethyl-1′-piperazinyl-iminomethyl)-16,17,18,19,28,29-hexahydrorifamycin SV] |  |  |  |  |  |  |  |  |  |  |  |  |  |  |  |  | 0 | 0 | 0 | 39 |  |
| CCOCCN1CCN(N=Cc2c3c(O)c4c(O)c(C)c5c(c4c2O)C(=O)C(C)(OCCC(OC)C(C)C(OC(C)=O)C(C)C(O)C(C)C(O)C(C)CCCC(C)C(=O)N3)O5)CC1 (centres unmarked) [Example 12, 3-[4′-(2-ethoxyethyl)-1′-piperazinyl-iminomethyl]-16,17,18,19,28,29-hexahydrorifamycin SV] |  |  |  |  |  |  |  |  |  |  |  |  |  |  |  |  | 0 | 0 | 0 | 0 | MIC (Minimum Inhibitory Concentration) ([1]; Table B): >50 µg/mL |
| COC1CCOC2(C)Oc3c(C)c(O)c4c(O)c(c(C=NN5CCN(C(C)C)CC5)c(O)c4c3C2=O)NC(=O)C(C)CCCC(C)C(O)C(C)C(O)C(C)C(OC(C)=O)C1C (centres unmarked) [Example 15, 3-(4′-isopropyl-1′-piperazinyl-iminomethyl)-16,17,18,19,28,29-hexahydrorifamycin SV] |  |  |  |  |  |  |  |  |  |  |  |  |  |  |  |  | 0 | 0 | 0 | 0 | MIC (Minimum Inhibitory Concentration) ([1]; Table B): >50 µg/mL |
| CO[C@H]1/C=C/O[C@@]2(C)Oc3c(C)c(O)c4c(c3C2=O)C(=O)C(N2CCOCC2)=C(NC(=O)/C(C)=C\C=C\[C@H](C)[C@@H]2OC(C)(C)O[C@@H]([C@@H](C)[C@H](OC(C)=O)[C@@H]1C)[C@@H]2C)C4=O [Example 23, 3-morpholine-21,23 O-isopropylidenerifamycin S, reference compound] | 39 | 40 | 69 | 30 | MCM | 30 | 10 | 0 | 6537 | 29.3 | 7869 | 35.3 | 4738 | 21.2 | 396 | 1.8 |  |  |  |  | MIC (Minimum Inhibitory Concentration) ([1]; Table A): <5 µg/mL; PXR activation, comparison in words (human receptor PXR [3]; compared with the compounds of the invention): decidedly less active |
| CC[C@H](C)C(=O)O[C@H]1CCC=C2C=C[C@H](C)[C@H](CC[C@@H]3C[C@@H](O)CC(=O)O3)[C@H]21 [Mevastafin, Mevastatin] |  |  |  |  |  |  |  |  |  |  |  | 3.4 |  |  |  |  |  |  |  |  | Mean RLU (human receptor PXR [4]): 758 RLU; Cell appearance**: cell confluence (%) (cell line DPX2 [5]): 30%; Cell appearance**: morphology (cell line DPX2 [5]): MCM |
